Structures can show the parent of a compound that is named as a salt.
Assays:
[1] = tested on: human aortic smooth muscle cells; experiment: Smooth muscle cell proliferation assay (radiolabeled thymidine incorporation or CellTiter AQ); type: cell-based; settings: human aortic SMC; for inhibition at 1 µM: 24 h post treatment; for IC50: 24 h post treatment in serum-containing growth medium, read-out: Activity: concentration giving 50% inhibition of smooth muscle cell proliferation
Method: Primary cultures of human aortic smooth muscle cells were obtained from Clonetics. SMC were initially grown in T-75 flasks prior to seeding in 96 well plates. The 96-well plates were seeded with 4000 cells/well. The following day cells were washed with serum free medium and left in serum free media for 24 hours for serum starvation. The next day cells received growth medium containing serum with or without compound. 24 h post treatment cell proliferation was assayed either assessing the incorporation of radiolabeled thymidine to DNA or using a non-radioactive cell proliferation kit from Promega (CellTiter AQ).

melting point [°C] | Structure (SMILES) | inhibition at 1 µM [1] [%] | IC50 [1] [nM]
262 | COc1ccc(Nc2nc(-c3ccc(F)cc3)nc3c(C)nn(C)c23)cc1F.Cl [E 16, (3-fluoro-4-methoxy-phenyl)-[5-(4-fluoro-phenyl)-1,3-dimethyl-1H-pyrazolo[4,3-d]pyrimidin-7-yl]-amine hydrochloride] | 100 | –
> 240 | COc1ccc(Nc2nc(-c3ccc(F)cc3)nc3c(C)nn(C)c23)cc1Cl.Cl [E 17, (3-chloro-4-methoxy-phenyl)-[5-(4-fluoro-phenyl)-1,3-dimethyl-1H-pyrazolo[4,3-d]pyrimidin-7-yl]-amine hydrochloride] | 100 | –
230 to 232 | Cc1nn(C)c2c(Nc3ccc4c(c3)OCO4)nc(-c3ccc(F)cc3)nc12.Cl [E 19, benzo[1,3]dioxol-5-yl-[5-(4-fluoro-phenyl)-1,3-dimethyl-1H-pyrazolo[4,3-d]pyrimidin-7-yl]-amine hydrochloride] | – | 450
236 to 238 | COc1ccc(Nc2nc(-c3cccs3)nc3c(C)nn(C)c23)cc1F.Cl [E 30, (1,3-dimethyl-5-thiophen-2-yl-1H-pyrazolo[4,3-d]pyrimidin-7-yl)-(3-fluoro-4-methoxy-phenyl)-amine hydrochloride] | – | 1450
> 240 | COc1ccc(Nc2nc(-c3cccs3)nc3c(C)nn(C)c23)cc1Cl.Cl [E 32, (3-chloro-4-methoxy-phenyl)-(1,3-dimethyl-5-thiophen-2-yl-1H-pyrazolo[4,3-d]pyrimidin-7-yl)-amine hydrochloride] | – | 940
– | Cc1nn(C)c2c(Nc3ccc4c(c3)OCO4)nc(-c3cccs3)nc12 [E 33, benzo[1,3]dioxol-5-yl-(1,3-dimethyl-5-thiophen-2-yl-1H-pyrazolo[4,3-d]pyrimidin-7-yl)-amine hydrochloride] | – | 540
230 to 232 | CCCc1nn(C)c2c(Nc3ccc(OC(F)(F)F)cc3)nc(-c3ccc(F)cc3)nc12.Cl [E 37, [5-(4-fluoro-phenyl)-1-methyl-3-propyl-1H-pyrazolo[4,3-d]pyrimidin-7-yl]-(4-trifluoromethoxy-phenyl)-amine hydrochloride] | – | 500
174 to 176 | Cc1nn(C)c2c(Nc3ccc(OC(F)(F)F)cc3)nc(-c3ccccc3)nc12.Cl [E 38, (1,3-dimethyl-5-phenyl-1H-pyrazolo[4,3-d]pyrimidin-7-yl)-(4-trifluoromethoxy-phenyl)-amine hydrochloride] | – | 230
250 to 252 | Cc1nn(C)c2c(Nc3ccc(C(F)(F)F)cc3)nc(-c3ccc(F)cc3)nc12.Cl [E 39, [5-(4-fluoro-phenyl)-1,3-dimethyl-1H-pyrazolo[4,3-d]pyrimidin-7-yl]-(4-trifluoromethyl-phenyl)-amine hydrochloride] | – | 330
254 to 256 | Cc1nn(C)c2c(Nc3ccc(S(=O)(=O)N(C)C)cc3)nc(-c3ccc(F)cc3)nc12.Cl [E 43, 4-[5-(4-fluoro-phenyl)-1,3-dimethyl-1H-pyrazolo[4,3-d]pyrimidin-7-ylamino]-N,N-dimethyl-benzenesulfonamide hydrochloride] | – | 930
– | Cc1nn(C)c2c(Nc3ccc(S(N)(=O)=O)cc3)nc(-c3ccccc3)nc12 [E 44, 4-(1,3-dimethyl-5-phenyl-1H-pyrazolo[4,3-d]pyrimidin-7-ylamino)-benzenesulfonamide hydrochloride] | – | 2500
210 to 212 | Cc1nn(C)c2c(-c3cccc(S(C)(=O)=O)c3)nc(-c3ccccc3)nc12 [E 67, 7-(3-methanesulfonyl-phenyl)-1,3-dimethyl-5-phenyl-1H-pyrazolo[4,3-d]pyrimidine] | – | –
176 to 178 | Cc1nn(C)c2c(-c3cccc(S(C)(=O)=O)c3)nc(-c3ccc(F)cc3)nc12 [E 68, 5-(4-fluoro-phenyl)-7-(3-methanesulfonyl-phenyl)-1,3-dimethyl-1H-pyrazolo[4,3-d]pyrimidine] | – | –
208 to 210 | CCCc1nn(C)c2c(-c3ccc(S(C)(=O)=O)cc3)nc(-c3ccc(F)cc3)nc12 [E 69, 5-(4-fluoro-phenyl)-7-(4-methanesulfonyl-phenyl)-1-methyl-3-propyl-1H-pyrazolo[4,3-d]pyrimidine] | – | –
156 to 158 | CCCc1nn(C)c2c(C#Cc3ccccc3)nc(-c3ccc(F)cc3)nc12 [E 70, 5-(4-fluoro-phenyl)-1-methyl-7-phenylethynyl-3-propyl-1H-pyrazolo[4,3-d]pyrimidine] | – | –
114 to 116 | CCCc1nn(C)c2c(-n3ccc4ccccc43)nc(-c3ccc(F)cc3)nc12 [E 88, 5-(4-fluoro-phenyl)-7-indol-1-yl-1-methyl-3-propyl-1H-pyrazolo[4,3-d]pyrimidine] | – | –
146 to 148 | CCCc1nn(C)c2c(-n3ccc4cc(Cl)ccc43)nc(-c3ccc(F)cc3)nc12 [E 89] | – | –
141 to 143 | Cc1nn(C)c2c(-n3ccc4ccccc43)nc(-c3ccccc3)nc12 [E 90, 7-indol-1-yl-1,3-dimethyl-5-phenyl-1H-pyrazolo[4,3-d]pyrimidine] | – | –
186 to 188 | Cc1nn(C)c2cc(-c3ccc(F)cc3)nc(-c3cccc(S(C)(=O)=O)c3)c12 [E 93, 6-(4-fluoro-phenyl)-4-(3-methanesulfonyl-phenyl)-1,3-dimethyl-1H-pyrazolo[4,3-c]pyridine] | – | –
92 to 94 | Cc1nn(C)c2cc(-c3ccc(F)cc3)nc(-c3ccc(OC(F)(F)F)cc3)c12 [E 94, 6-(4-fluoro-phenyl)-1,3-dimethyl-4-(4-trifluoromethoxy-phenyl)-1H-pyrazolo[4,3-c]pyridine] | – | –
216 to 218 | Cc1nn(C)c2c(Nc3ccc(S(C)(=O)=O)cc3)nc(-c3ccc(F)cc3)nc12 [E 96, [5-(4-fluoro-phenyl)-1,3-dimethyl-1H-pyrazolo[4,3-d]pyrimidin-7-yl]-(4-methanesulfonyl-phenyl)-amine] | – | 1370
228 to 230 | Cc1nn(C)c2cc(-c3ccc(F)cc3)nc(-c3ccc(S(C)(=O)=O)cc3)c12 [E 98, 6-(4-fluoro-phenyl)-4-(4-methanesulfonyl-phenyl)-1,3-dimethyl-1H-pyrazolo[4,3-c]pyridine] | – | –
110 to 112 | Cc1nn(C)c2c(F)nc(-c3ccccc3)nc12 [E 99, 7-fluoro-1,3-dimethyl-5-phenyl-1H-pyrazolo[4,3-d]pyrimidine] | – | –
170 to 172 | Cc1nn(C)c2c(-c3ccc(OC(F)(F)F)cc3)nc(-c3ccc(F)cc3)nc12 [E 101, 5-(4-fluoro-phenyl)-1,3-dimethyl-7-(4-trifluoromethoxy-phenyl)-1H-pyrazolo[4,3-d]pyrimidine] | – | –
86 to 88 | Cc1nn(C)c2c(N(C)C)nc(-c3ccccc3)nc12 [E 102, (1,3-dimethyl-5-phenyl-1H-pyrazolo[4,3-d]pyrimidin-7-yl)-dimethyl-amine] | – | –

From US20060128729A1, “Novel bicyclic heterocyclic compounds, process for their preparation and compositions containing them” (priority 2004, published 2006)
